Data as given in patent US10981905B2, “Heteroaryl-substituted sulfonamide compounds and their use as therapeutic agents” (Xenon Pharmaceuticals Inc., priority 2018, dated 2021).
Where a name gives a salt, the structure may show the parent alone. Read-outs that look alike come from different tables or passages of the source.

Experiments:
Nav1.6 = Nav1.6 (Homo sapiens (Human), UniProt Q9UQD0); assay: Sodium Influx Assay (Flux), Nav1.6; type: cell-based; conditions: Trex HEK293 cells, ANG2 dye, inactivated state
Nav1.5 = Nav1.5 (Homo sapiens (Human), UniProt Q14524); assay: Sodium Influx Assay (Flux), Nav1.5
Chain of Nav1.5 (Q14524 other isoform, or with tags, fused parts or gaps): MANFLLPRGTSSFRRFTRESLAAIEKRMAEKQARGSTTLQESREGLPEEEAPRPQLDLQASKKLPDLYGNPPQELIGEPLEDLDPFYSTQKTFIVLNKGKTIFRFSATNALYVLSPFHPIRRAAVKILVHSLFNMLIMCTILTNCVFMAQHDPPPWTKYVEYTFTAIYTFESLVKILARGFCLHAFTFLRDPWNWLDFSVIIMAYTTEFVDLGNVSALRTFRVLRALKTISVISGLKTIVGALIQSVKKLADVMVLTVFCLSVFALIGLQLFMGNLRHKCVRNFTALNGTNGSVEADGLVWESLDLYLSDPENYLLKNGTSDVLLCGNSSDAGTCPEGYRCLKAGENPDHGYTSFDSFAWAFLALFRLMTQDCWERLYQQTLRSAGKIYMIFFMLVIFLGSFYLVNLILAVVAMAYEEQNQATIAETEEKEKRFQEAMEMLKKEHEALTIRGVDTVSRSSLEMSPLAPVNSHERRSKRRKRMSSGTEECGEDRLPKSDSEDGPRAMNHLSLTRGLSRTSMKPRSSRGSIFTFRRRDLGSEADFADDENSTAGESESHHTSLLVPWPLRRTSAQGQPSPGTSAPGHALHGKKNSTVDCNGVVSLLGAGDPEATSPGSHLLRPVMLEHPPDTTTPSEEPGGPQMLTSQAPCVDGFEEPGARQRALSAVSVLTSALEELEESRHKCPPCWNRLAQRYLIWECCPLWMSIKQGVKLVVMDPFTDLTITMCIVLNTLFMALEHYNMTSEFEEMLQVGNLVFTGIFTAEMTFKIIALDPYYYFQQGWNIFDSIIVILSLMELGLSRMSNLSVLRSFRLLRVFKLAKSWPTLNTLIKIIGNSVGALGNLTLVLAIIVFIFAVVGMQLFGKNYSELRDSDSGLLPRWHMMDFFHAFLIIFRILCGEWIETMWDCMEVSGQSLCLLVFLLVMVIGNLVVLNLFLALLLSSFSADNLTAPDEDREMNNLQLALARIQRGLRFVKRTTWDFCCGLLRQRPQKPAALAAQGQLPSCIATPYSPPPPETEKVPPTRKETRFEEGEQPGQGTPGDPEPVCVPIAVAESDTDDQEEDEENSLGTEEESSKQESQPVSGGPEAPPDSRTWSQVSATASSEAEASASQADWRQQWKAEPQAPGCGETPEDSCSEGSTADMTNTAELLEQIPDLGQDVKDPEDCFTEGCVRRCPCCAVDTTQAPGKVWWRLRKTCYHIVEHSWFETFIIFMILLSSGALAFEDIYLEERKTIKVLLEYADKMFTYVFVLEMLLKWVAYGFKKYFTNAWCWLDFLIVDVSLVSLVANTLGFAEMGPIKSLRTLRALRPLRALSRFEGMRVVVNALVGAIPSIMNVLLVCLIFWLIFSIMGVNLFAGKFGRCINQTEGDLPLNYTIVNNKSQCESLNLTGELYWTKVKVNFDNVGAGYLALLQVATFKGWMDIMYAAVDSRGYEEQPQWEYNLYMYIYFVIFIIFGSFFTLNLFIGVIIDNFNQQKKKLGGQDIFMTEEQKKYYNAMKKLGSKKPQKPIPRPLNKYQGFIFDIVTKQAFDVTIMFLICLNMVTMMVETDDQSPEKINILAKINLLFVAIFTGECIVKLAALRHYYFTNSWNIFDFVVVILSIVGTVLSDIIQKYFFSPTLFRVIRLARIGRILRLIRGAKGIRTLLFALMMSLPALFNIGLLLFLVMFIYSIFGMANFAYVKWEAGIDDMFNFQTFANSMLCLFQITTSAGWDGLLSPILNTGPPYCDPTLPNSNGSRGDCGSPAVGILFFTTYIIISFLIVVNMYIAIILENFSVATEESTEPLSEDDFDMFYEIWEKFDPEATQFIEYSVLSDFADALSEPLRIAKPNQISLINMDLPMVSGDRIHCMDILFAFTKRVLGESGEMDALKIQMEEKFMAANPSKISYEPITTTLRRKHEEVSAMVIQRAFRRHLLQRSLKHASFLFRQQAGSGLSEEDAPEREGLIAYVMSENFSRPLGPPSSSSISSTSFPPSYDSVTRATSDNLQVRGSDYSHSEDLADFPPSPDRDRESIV

Nav1.1 = Nav1.1 (Homo sapiens (Human), UniProt P35498); assay: Sodium Influx Assay (Flux), Nav1.1; type: cell-based; conditions: Trex HEK293 cells, ANG2 dye, inactivated state
[1] = read-out: Flux NaV1.5 IC50, sodium influx assay, Trex HEK293 cells, ANG2 dye, inactivated state

| SMILES | IC50 (Nav1.6) | IC50 (Nav1.5; [1]) | IC50 (Nav1.1) | IC50 (Nav1.5) |
| --- | --- | --- | --- | --- |
| C[C@H](Nc1ncc(S(=O)(=O)Nc2cscn2)cc1Cl)c1cc(Cl)ccc1F [Example 1, (S)-5-chloro-6-((1-(5-chloro-2-fluorophenyl)ethyl)amino)-N-(thiazol-4-yl)pyridine-3-sulfonamide] | 2.82 µM | 5.57 µM | 5 µM |  |
| C[C@H](Nc1ncc(S(=O)(=O)Nc2cscn2)cc1Cl)c1ccccc1F [Example 2, (S)-5-chloro-6-((1-(2-fluorophenyl)ethyl)amino)-N-(thiazol-4-yl)pyridine-3-sulfonamide] | 13.2 µM | 20.4 µM | 25.8 µM |  |
| Cc1nc(S(=O)(=O)Nc2cscn2)ccc1N[C@@H](C)c1ccccc1F [Example 3, (S)-5-((1-(2-fluorophenyl)ethyl)amino)-6-methyl-N-(thiazol-4-yl)pyridine-2-sulfonamide] | 4.74 µM | 30 µM | 30 µM |  |
| O=S(=O)(Nc1cscn1)c1ccc(NCc2c(F)cccc2CN2CCC2)nc1 [Example 5, 6-((2-(azetidin-1-ylmethyl)-6-fluorobenzyl)amino)-N-(thiazol-4-yl)pyridine-3-sulfonamide] | 8.47 µM | 26.5 µM | 30 µM |  |
| Cc1cc(S(=O)(=O)Nc2cscn2)ncc1NCc1c(F)cccc1CN1CCC1 [Example 7, 5-((2-(azetidin-1-ylmethyl)-6-fluorobenzyl)amino)-4-methyl-N-(thiazol-4-yl)pyridine-2-sulfonamide formic acid salt] | 5.82 µM | 30 µM | 30 µM |  |
| Cc1nc(S(=O)(=O)Nc2cscn2)ccc1NCc1c(F)cccc1CN1CCC1(C)C [Example 8, 5-((2-((2,2-dimethylazetidin-1-yl)methyl)-6-fluorobenzyl)amino)-6-methyl-N-(thiazol-4-yl)pyridine-2-sulfonamide trifluoroacetic acid salt] | 0.719 µM | 30 µM | 30 µM |  |
| Cc1cc(S(=O)(=O)Nc2cccc(F)n2)ncc1NCc1c(F)cccc1CN1CCC1 [Example 9, 5-((2-(azetidin-1-ylmethyl)-6-fluorobenzyl)amino)-N-(6-fluoropyridin-2-yl)-4-methylpyridine-2-sulfonamide] | 0.917 µM | 21.1 µM | 30 µM |  |
| Cc1nc(NCc2c(F)cccc2CN(C)C(C)(C)C)ccc1S(=O)(=O)Nc1cscn1 [Example 10, 6-((2-((tert-butyl(methyl)amino)methyl)-6-fluorobenzyl)amino)-2-methyl-N-(thiazol-4-yl)pyridine-3-sulfonamide formic acid salt] | 5.31 µM | 7.76 µM | 23.6 µM |  |
| CN(Cc1cccc(F)c1CNc1ncc(S(=O)(=O)Nc2cscn2)cc1Cl)C(C)(C)C [Example 11, 6-((2-((tert-butyl(methyl)amino)methyl)-6-fluorobenzyl)amino)-5-chloro-N-(thiazol-4-yl)pyridine-3-sulfonamide formic acid salt] | 8.37 µM | 8.87 µM | 11.7 µM |  |
| Cc1cc(S(=O)(=O)Nc2ccsn2)ncc1NCc1c(F)cccc1CN1CCC1 [Example 12, 5-((2-(azetidin-1-ylmethyl)-6-fluorobenzyl)amino)-N-(isothiazol-3-yl)-4-methylpyridine-2-sulfonamide trifluoroacetic acid salt] | 3.43 µM | 30 µM | 30 µM |  |
| Cc1cc(S(=O)(=O)Nc2cscn2)cnc1NCc1c(F)cccc1CN(C)C(C)(C)C [Example 13, 6-((2-((tert-butyl(methyl)amino)methyl)-6-fluorobenzyl)amino)-5-methyl-N-(thiazol-4-yl)pyridine-3-sulfonamide formic acid salt] | 11.3 µM | 6.02 µM | 14.9 µM |  |
| Cc1nc(S(=O)(=O)Nc2cscn2)ccc1NCc1c(F)cccc1CN1CC(C)(F)C1 [Example 14, 5-((2-fluoro-6-((3-fluoro-3-methylazetidin-1-yl)methyl)benzyl)amino)-6-methyl-N-(thiazol-4-yl)pyridine-2-sulfonamide] | 0.382 µM | 24.5 µM | 13 µM |  |
| Cc1nc(S(=O)(=O)Nc2cscn2)ccc1NCc1c(F)cccc1CN(C)CC1CC1 [Example 15, 5-((2-(((cyclopropylmethyl)(methyl)amino)methyl)-6-fluorobenzyl)amino)-6-methyl-N-(thiazol-4-yl)pyridine-2-sulfonamide formic acid salt] | 0.286 µM | 21.6 µM | 30 µM |  |
| Cc1nc(S(=O)(=O)Nc2cscn2)ccc1NCc1cccc2ccncc12 [Example 16, 5-((isoquinolin-8-ylmethyl)amino)-6-methyl-N-(thiazol-4-yl)pyridine-2-sulfonamide formic acid salt] | 1.27 µM | 30 µM | 30 µM |  |
| O=S(=O)(Nc1cscn1)c1cc(C(F)F)c(NCc2c(F)cccc2CN2CCCC2)cn1 [Example 17, 4-(difluoromethyl)-5-((2-fluoro-6-(pyrrolidin-1-ylmethyl)benzyl)amino)-N-(thiazol-4-yl)pyridine-2-sulfonamide formic acid salt] | 1.46 µM | 30 µM | 30 µM |  |
| O=S(=O)(Nc1cscn1)c1ccc(NCc2c(F)cccc2CN2CCCC2)c(C(F)F)n1 [Example 18, 6-(difluoromethyl)-5-((2-fluoro-6-(pyrrolidin-1-ylmethyl)benzyl)amino)-N-(thiazol-4-yl)pyridine-2-sulfonamide formic acid salt] | 0.015 µM | 21.4 µM | 15.5 µM |  |
| Cc1nc(S(=O)(=O)Nc2cccc(F)n2)ccc1NCc1c(F)cccc1CN(C)C(C)(C)C [Example 22, 5-((2-((tert-butyl(methyl)amino)methyl)-6-fluorobenzyl)amino)-N-(6-fluoropyridin-2-yl)-6-methylpyridine-2-sulfonamide trifluoroacetic acid salt] | 0.221 µM | 30 µM | 30 µM |  |
| Cc1sc(S(=O)(=O)Nc2cccc(F)n2)cc1NCc1c(F)cccc1Br [Example 23, 4-((2-bromo-6-fluorobenzyl)amino)-N-(6-fluoropyridin-2-yl)-5-methylthiophene-2-sulfonamide] | 9.54 µM | 30 µM | 7.68 µM |  |
| Cc1nc(S(=O)(=O)Nc2cscn2)ccc1NCc1c(F)cccc1CN1CC(C)C1 [Example 24, 5-((2-fluoro-6-((3-methylazetidin-1-yl)methyl)benzyl)amino)-6-methyl-N-(thiazol-4-yl)pyridine-2-sulfonamide] | 0.074 µM | 30 µM | 30 µM |  |
| Cc1nc(S(=O)(=O)Nc2cscn2)ccc1NCc1ccccc1CN1CCC1 [Example 26, 5-((2-(azetidin-1-ylmethyl)benzyl)amino)-6-methyl-N-(thiazol-4-yl)pyridine-2-sulfonamide trifluoroacetic acid salt] | 0.242 µM | 30 µM | 30 µM |  |
| Cc1nc(S(=O)(=O)Nc2cscn2)ccc1NCc1cccc(F)c1CN1CCC1 [Example 27, 5-((2-(azetidin-1-ylmethyl)-3-fluorobenzyl)amino)-6-methyl-N-(thiazol-4-yl)pyridine-2-sulfonamide trifluoroacetic acid salt] | 0.296 µM | 30 µM | 30 µM |  |
| Cc1nc(S(=O)(=O)Nc2cscn2)ccc1NCc1ccccc1CN(C)C(C)(C)C [Example 28, 5-((2-((tert-butyl(methyl)amino)methyl)benzyl)amino)-6-methyl-N-(thiazol-4-yl)pyridine-2-sulfonamide trifluoroacetic acid salt] | 0.782 µM |  | ≥ 30 µM | ≥ 30 µM |
| Cc1nc(S(=O)(=O)Nc2cscn2)ccc1NCc1c(F)cccc1CN1CCCC1 [Example 30, 5-((2-fluoro-6-(pyrrolidin-1-ylmethyl)benzyl)amino)-6-methyl-N-(thiazol-4-yl)pyridine-2-sulfonamide trifluoroacetic acid salt] | 0.111 µM | 30 µM | 30 µM |  |
| O=S(=O)(Nc1cscn1)c1cc(C(F)(F)F)c(NCc2c(F)cccc2CN2CCC2)cn1 [Example 31, 5-((2-(azetidin-1-ylmethyl)-6-fluorobenzyl)amino)-N-(thiazol-4-yl)-4-(trifluoromethyl)pyridine-2-sulfonamide] | 1.5 µM | 30 µM | 30 µM |  |
| Cc1nc(S(=O)(=O)Nc2cccc(F)n2)c(F)cc1NCc1ccccc1CN(C)C(C)(C)C [Example 32, 5-((2-((tert-butyl(methyl)amino)methyl)benzyl)amino)-3-fluoro-N-(6-fluoropyridin-2-yl)-6-methylpyridine-2-sulfonamide trifluoroacetic acid salt] | 0.272 µM | 30 µM | 16.7 µM |  |
| Cc1nc(S(=O)(=O)Nc2cscn2)c(F)cc1NCc1ccccc1CN(C)C(C)(C)C [Example 34, 5-((2-((tert-butyl(methyl)amino)methyl)benzyl)amino)-3-fluoro-6-methyl-N-(thiazol-4-yl)pyridine-2-sulfonamide formic acid salt] | 0.037 µM |  | ≥ 30 µM | ≥ 30 µM |
| Cc1nc(S(=O)(=O)Nc2cscn2)c(F)cc1NCc1c(F)cccc1CN(C)C(C)C [Example 35, 3-fluoro-5-((2-fluoro-6-((isopropyl(methyl)amino)methyl)benzyl)amino)-6-methyl-N-(thiazol-4-yl)pyridine-2-sulfonamide trifluoroacetic acid salt] | 0.024 µM |  | 10.5 µM | ≥ 30 µM |
| Cc1nc(S(=O)(=O)Nc2cscn2)c(F)cc1NCc1c(F)ccc(F)c1Br [Example 36, 5-((2-bromo-3,6-difluorobenzyl)amino)-3-fluoro-6-methyl-N-(thiazol-4-yl)pyridine-2-sulfonamide trifluoroacetic acid salt] | 0.863 µM | 30 µM | 0.245 µM |  |
